Measured values published in patent US20140080908A1, “COMPOSITIONS AND METHODS FOR IMPROVING OR […]-LIKE SYMPTOMS” (PHYTO TECH CORP., priority 2012, published 2014).

Experiments:
C57BL/6J mice [1] = conditions: 30 mg/kg/day orally for 3 months (90 days); compared to calcium gluconate or vehicle; p<0.05; FIG. 2A
Method: (§1) Vehicle (saline) was administered to the third group of mice as a control. The animals were then subject to TST and FST.

C57BL/6J mice [2] = conditions: 30 mg/kg/day orally for 3 months (90 days); compared to calcium gluconate or vehicle; p<0.05; FIG. 2B
Method: In an FST, each mouse is placed in a separate acrylic glass cylinder that is filled with water (23-25° C.) to a level high enough to prevent the mouse from touching the bottom of the cylinder with his paws or tail, yet low enough to prevent the mouse from escaping through the top opening of the cylinder. The mice are thus forced to swim in the cylinders. […] FST is the most widely used as a screen for acute antidepressants, and the duration of immobility is the main parameter by which the effectiveness of an antidepressant treatment is measured.
as §1

human bone marrow cells = conditions: 1, 2.5, 5 and 7 sec time points; every time point tested; FIG. 1
[3] = in vivo; cited from earlier work

O=C(O)[C@H](O)[C@@H](O)CO (stereo in doubt) [calcium (2R, 3S)-2,3,4-trihydroxybutyric acid]
duration of immobility in TST (C57BL/6J mice [1]): significantly decreased duration of immobility | duration of immobility in FST (C57BL/6J mice [2]): significantly decreased duration of immobility | calcium absorption by human bone marrow cells relative to calcium gluconate (human bone marrow cells): approximately three times more | bioavailability compared to calcium gluconate, calcium acetate and calcium carbonate [3]: higher bioavailability
